# Laboratory results taken from PMC8578635 (Nature Communications, 2021).
# Columns and labels:
# [1] = molecular target: T1, TOP2A (Homo sapiens, UniProt P11388); test: kDNA decatenation and pBR322 relaxation assays with purified human topoisomerase II; supported by band depletion and RADAR TOP2cc assays in cells; assay type: biochemical
# [2] = molecular target: T1, TOP2A; test: kDNA decatenation and pBR322 relaxation assays with purified human topoisomerase II; band depletion in CHP-134 cells; assay type: biochemical
# [3] = molecular target: T1, TOP2A; test: kDNA decatenation and pBR322 relaxation assays with purified human topoisomerase II
# [4] = molecular target: topoisomerase II beta (TOP2B) (Homo sapiens, UniProt Q02880); test: as above; assay type: biochemical
# Chain of topoisomerase II beta (TOP2B) (Q02880 2-1626): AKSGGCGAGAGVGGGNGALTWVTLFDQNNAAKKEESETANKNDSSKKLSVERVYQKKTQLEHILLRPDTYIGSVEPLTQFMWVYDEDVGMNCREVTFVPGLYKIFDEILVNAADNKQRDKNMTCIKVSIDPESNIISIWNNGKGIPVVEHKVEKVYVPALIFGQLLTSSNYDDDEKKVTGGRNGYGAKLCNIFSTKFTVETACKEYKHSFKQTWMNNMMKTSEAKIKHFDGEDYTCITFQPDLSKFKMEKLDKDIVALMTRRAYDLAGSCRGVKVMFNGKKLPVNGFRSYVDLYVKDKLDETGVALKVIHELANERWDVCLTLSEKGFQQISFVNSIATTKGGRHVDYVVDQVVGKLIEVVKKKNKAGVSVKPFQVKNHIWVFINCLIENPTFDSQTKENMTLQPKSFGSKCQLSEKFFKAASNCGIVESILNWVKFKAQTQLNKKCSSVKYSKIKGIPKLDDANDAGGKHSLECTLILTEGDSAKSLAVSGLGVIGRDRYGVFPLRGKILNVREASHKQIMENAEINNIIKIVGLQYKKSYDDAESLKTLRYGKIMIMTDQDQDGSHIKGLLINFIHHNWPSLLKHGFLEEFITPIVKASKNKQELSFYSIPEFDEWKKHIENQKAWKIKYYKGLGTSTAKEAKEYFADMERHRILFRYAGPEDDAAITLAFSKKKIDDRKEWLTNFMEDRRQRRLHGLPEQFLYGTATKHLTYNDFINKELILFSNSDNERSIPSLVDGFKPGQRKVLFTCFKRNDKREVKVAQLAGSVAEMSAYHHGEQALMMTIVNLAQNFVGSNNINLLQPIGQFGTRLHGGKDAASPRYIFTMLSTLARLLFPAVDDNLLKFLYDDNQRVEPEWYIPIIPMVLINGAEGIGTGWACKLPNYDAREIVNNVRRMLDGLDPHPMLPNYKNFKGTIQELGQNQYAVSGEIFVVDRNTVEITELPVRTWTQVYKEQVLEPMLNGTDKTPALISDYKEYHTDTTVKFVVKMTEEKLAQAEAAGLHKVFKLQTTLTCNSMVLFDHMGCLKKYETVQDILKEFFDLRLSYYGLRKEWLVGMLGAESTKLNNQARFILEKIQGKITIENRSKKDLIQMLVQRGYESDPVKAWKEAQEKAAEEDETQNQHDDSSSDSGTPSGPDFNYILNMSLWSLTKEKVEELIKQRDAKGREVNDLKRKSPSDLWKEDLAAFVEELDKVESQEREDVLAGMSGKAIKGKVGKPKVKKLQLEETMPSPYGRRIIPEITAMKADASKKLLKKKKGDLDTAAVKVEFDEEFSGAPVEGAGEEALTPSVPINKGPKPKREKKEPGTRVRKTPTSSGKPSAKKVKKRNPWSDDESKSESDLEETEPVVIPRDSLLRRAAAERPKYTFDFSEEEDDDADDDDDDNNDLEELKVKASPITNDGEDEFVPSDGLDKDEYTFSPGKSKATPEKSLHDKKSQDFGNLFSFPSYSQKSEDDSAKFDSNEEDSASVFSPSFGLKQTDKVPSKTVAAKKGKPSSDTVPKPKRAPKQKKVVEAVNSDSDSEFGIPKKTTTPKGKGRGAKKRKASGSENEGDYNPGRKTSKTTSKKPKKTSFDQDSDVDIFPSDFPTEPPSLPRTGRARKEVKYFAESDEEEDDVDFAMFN
# T1 sequence (P11388 whole entry): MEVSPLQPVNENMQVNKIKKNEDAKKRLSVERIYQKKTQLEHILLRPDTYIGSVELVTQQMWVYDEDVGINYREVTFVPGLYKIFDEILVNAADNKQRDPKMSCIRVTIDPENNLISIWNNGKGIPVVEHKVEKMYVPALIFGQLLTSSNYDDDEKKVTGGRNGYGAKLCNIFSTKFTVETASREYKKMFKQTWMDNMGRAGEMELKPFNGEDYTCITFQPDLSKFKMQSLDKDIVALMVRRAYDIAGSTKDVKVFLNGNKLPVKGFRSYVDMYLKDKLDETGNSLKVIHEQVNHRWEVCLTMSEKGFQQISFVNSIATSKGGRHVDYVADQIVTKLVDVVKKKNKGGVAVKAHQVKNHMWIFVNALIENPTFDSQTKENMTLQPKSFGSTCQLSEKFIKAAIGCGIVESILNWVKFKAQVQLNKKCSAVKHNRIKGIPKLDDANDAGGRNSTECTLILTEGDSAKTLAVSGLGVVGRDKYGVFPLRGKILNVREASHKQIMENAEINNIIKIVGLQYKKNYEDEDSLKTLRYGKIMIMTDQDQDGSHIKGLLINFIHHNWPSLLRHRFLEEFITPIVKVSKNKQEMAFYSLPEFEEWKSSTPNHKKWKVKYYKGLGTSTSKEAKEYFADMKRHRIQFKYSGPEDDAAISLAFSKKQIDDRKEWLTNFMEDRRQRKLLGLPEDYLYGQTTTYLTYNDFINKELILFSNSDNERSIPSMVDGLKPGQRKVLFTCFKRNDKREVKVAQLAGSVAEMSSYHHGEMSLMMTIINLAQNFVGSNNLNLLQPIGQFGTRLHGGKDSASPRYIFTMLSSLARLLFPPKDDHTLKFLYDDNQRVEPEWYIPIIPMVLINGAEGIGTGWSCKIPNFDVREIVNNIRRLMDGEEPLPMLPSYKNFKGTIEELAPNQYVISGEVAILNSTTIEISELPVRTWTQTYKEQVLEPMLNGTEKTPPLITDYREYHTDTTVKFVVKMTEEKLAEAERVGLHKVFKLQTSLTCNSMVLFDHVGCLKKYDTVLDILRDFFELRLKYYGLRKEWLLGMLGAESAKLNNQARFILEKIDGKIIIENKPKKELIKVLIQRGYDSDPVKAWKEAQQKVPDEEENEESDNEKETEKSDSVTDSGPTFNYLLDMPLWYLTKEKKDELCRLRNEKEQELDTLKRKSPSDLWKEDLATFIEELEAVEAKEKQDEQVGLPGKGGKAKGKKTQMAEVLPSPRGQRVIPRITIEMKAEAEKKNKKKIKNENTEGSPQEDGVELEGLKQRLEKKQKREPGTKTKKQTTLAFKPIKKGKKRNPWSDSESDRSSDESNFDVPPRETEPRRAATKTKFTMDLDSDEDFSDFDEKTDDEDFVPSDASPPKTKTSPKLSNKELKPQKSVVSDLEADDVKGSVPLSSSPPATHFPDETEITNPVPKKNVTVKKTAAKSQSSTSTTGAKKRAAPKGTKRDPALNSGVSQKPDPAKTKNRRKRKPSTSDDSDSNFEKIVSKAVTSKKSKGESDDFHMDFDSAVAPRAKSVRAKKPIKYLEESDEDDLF
smiles,measurement,setting,value
Cc1cnc(CNC(=O)c2c(=O)c3ccc(N4CCCN(C)CC4)nc3n3c2sc2ccccc23)cn1 [CX-5461],kDNA decatenation and pBR322 relaxation assays with purified human topoisomerase,[1],CX-5461 inhibited the activity of both TOP2A and TOP2B—strikingly at concentrations substantially lower than etoposide
COc1cccc2c1C(=O)c1c(O)c3c(c(O)c1C2=O)C[C@@](O)(C(=O)CO)C[C@@H]3O[C@H]1C[C@H](N)[C@H](O)[C@H](C)O1 [doxorubicin],kDNA decatenation and pBR322 relaxation assays with purified human topoisomerase,[2],Etoposide and doxorubicin had similar activity against both paralogs.
COc1cc([C@@H]2c3cc4c(cc3[C@@H](O[C@@H]3O[C@@H]5CO[C@@H](C)O[C@H]5[C@H](O)[C@H]3O)[C@H]3COC(=O)[C@H]23)OCO4)cc(OC)c1O [etoposide],kDNA decatenation and pBR322 relaxation assays with purified human topoisomerase,[3],Etoposide and doxorubicin had similar activity against both paralogs.
same,kDNA decatenation and pBR322 relaxation assays with purified human topoisomerase,[4],Etoposide and doxorubicin had similar activity against both paralogs.
